Tests used:
[1] = Precipitation of (Z)-endoxifen by antisolvent addition, PAD and PAI (XRPD); type: physicochemical
Experimental: Further (Z)-endoxifen crystallizations were performed utilizing antisolvents to affect precipitation. (Z)-endoxifen was dissolved in various solvents to obtain suspensions at room temperature that were then stirred overnight and filtered with a nylon filter (0.22 μm) to obtain a clear stock solution. Two different types of precipitation experiments were performed with the resulting clear stock solutions. For precipitation by antisolvent addition to a saturated solution (PAD) experiments, antisolvent was added dropwise to the clear stock solution during stirring at room temperature at a ratio of 1:5 or 1:10 stock solution:antisolvent. For precipitation by saturated solution addition to an antisolvent (PAI) experiments, the clear stock solution was added drop wise to antisolvent under magnetic stirring at room temperature at a ratio of 1:5 or 1:10 stock solution:antisolvent. All obtained precipitates from PAD and PAI experiments were filtered under vacuum and analyzed by XRPD. […] After storage if there was no precipitate, the solutions were evaporated at room temperature. All obtained precipitates were filtered under vacuum and analyzed by XRPD. PAD and PAI experiments were also performed on the clear solutions with a concentration of 20 mg/ml (Z)-endoxifen recovered from the solubility experiments, described in EXAMPLE 19. The clear solutions recovered were (Z)-endoxifen solutions in ethyl acetate, butyl acetate, 4-met-2-pentanone, and toluene. The procedure for the PAI and PAD was the same as described above.

[2] = Scale-up crystallizations of (Z)-endoxifen Form I, Form IV, Form VII (XRPD); type: physicochemical; conditions: ethyl acetate 0.8 mL sat, heptane 4 mL, RT to −20 °C, 1 d
Experimental: The acetonitrile slurry method for generating Form I (EXAMPLE 5) was performed on a 800 mg-scale. For this crystallization, 800 mg (Z)-endoxifen was partially dissolved in 8 ml acetonitrile at a concentration of 100 mg/ml and left under magnetic stirring at 50° C. for 2 days. Solid (Z)-endoxifen was collected from the slurry and analyzed by XRPD, confirming that the resultant solid was Form I. The remaining slurry was then filtered with a 0.45p m paper filter under vacuum and analyzed by XRPD, which indicated a yield of 94% for the resultant Form I
The EXAMPLE 6 procedure for generating Form IV by precipitation from 2-propanol/ethyl acetate (50/50 v/v) systems was scaled to both 500 mg and 1 g. For these crystallizations, (Z)-endoxifen was added to 2-propanol/ethyl acetate 50/50 (v/v) mixtures to achieve concentrations of 100 mg/ml. The solvent mixtures were then heated to 65° C. Once complete dissolution of (Z)-endoxifen occurred, the solvent mixtures were cooled to 25° C. at a rate of 0.2° C./minute. The solutions were maintained at 25° C. with stirring for 18 hours, and then vacuum filtered with a 0.45 μm paper filter.
The ethyl acetate:heptane crystallizations outlined in EXAMPLE 10 were repeated at larger scales. […]

[3] = PAD--GRAD-EVRT, butyl acetate 0.15 mL, butyl methyl ether 1.5 mL, RT
[4] = PAD--GRAD-EVRT, tetrahydrofuran 0.03 mL sat, acetone 0.3 mL, RT
[5] = PAD-GRAD-EVRT, ethyl acetate 0.15 mL, butyl methyl ether 1.5 mL, RT
[6] = PAD-GRAD-EVRT, toluene 0.15 mL, butyl methyl ether 1.5 mL, RT
[7] = PAD, butyl acetate 0.15 mL, 20 mg/mL, antisolvent heptane 0.75 mL, RT
[8] = PAD, butyl acetate 0.15 mL, 20 mg/mL, antisolvent heptane 1.5 mL, RT
[9] = PAD, ethyl acetate 0.15 mL, 20 mg/mL, antisolvent heptane 0.75 mL, RT
[10] = PAD, ethyl acetate 0.15 mL, 20 mg/mL, antisolvent heptane 1.5 mL, RT
[11] = PAD, tetrahydrofuran 0.03 mL sat, heptane 0.15 mL, RT
[12] = PAD, tetrahydrofuran 0.03 mL sat, water 0.15 mL, RT
[13] = PAD, tetrahydrofuran 0.03 mL sat, water 0.3 mL, RT
[14] = PAD, toluene 0.15 mL, 20 mg/mL, antisolvent heptane 1.5 mL, RT
[15] = PAI-GRAD-EVRT, tetrahydrofuran 0.03 mL sat, acetone 0.3 mL, RT
[16] = PAI, tetrahydrofuran 0.03 mL sat, heptane 0.15 mL, RT
[17] = PAI, tetrahydrofuran 0.03 mL sat, water 0.3 mL, RT

Output Crystallinity [high/low/SC/oriented] [1, 3]: low
Output Main phase [phase] [1, 3]: Form I
Output Main phase [phase] [1, 4]: Form XII
Output Traces [phase] [1, 4]: Form I
Output Main phase [phase] ([1]; PAD-GRAD-EVRT, dimethylformamide 0.15 mL sat, butyl methyl ether 1.5 mL, RT): Form I
Output Crystallinity [high/low/SC/oriented] [1, 5]: low
Output Main phase [phase] [1, 5]: Form I
Output Crystallinity [high/low/SC/oriented] [1, 6]: low
Output Main phase [phase] [1, 6]: Form VIII
Output Main phase [phase] ([1]; PAD-GRAD, butyl acetate 0.15 mL, butyl methyl ether 1.5 mL, 25 to −20 °C, ramp not controlled, 1 d): no solid
Output Main phase [phase] ([1]; PAD-GRAD, dimethylformamide 0.15 mL sat, butyl methyl ether 1.5 mL, RT to −20 °C, 1 d): no solid
Output Main phase [phase] ([1]; PAD-GRAD, ethyl acetate 0.15 mL, butyl methyl ether 1.5 mL, 25 to −20 °C, ramp not controlled, 1 d): no solid
Output Main phase [phase] ([1]; PAD-GRAD, methyl isobutyl ketone 0.15 mL, butyl methyl ether 1.5 mL, 25 to −20 °C, ramp not controlled, 1 d): no solid
Output Main phase [phase] ([1]; PAD-GRAD, tetrahydrofuran 0.03 mL sat, acetone 0.3 mL, RT to −20 °C, 1 d): no solid
Output Main phase [phase] ([1]; PAD-GRAD, toluene 0.15 mL, butyl methyl ether 1.5 mL, 25 to −20 °C, ramp not controlled, 1 d): no solid
Output Main phase [phase] ([1]; PAD, butyl acetate 0.15 mL, 20 mg/mL, antisolvent butyl methyl ether 0.75 mL, RT): no solid
Output Main phase [phase] ([1]; PAD, butyl acetate 0.15 mL, 20 mg/mL, antisolvent butyl methyl ether 1.5 mL, RT): no solid
Output Crystallinity [high/low/SC/oriented] [1, 7]: low
Output Main phase [phase] [1, 7]: no solid
Output Crystallinity [high/low/SC/oriented] [1, 8]: low
Output Main phase [phase] [1, 8]: Form IX
Output Main phase [phase] ([1]; PAD, dimethylformamide 0.15 mL sat, butyl methyl ether 0.75 mL, RT): no solid
Output Main phase [phase] ([1]; PAD, dimethylformamide 0.15 mL sat, butyl methyl ether 1.5 mL, RT): no solid
Output Main phase [phase] ([1]; PAD, dimethylformamide 0.15 mL sat, water 0.75 mL, RT): amorphous
Output Main phase [phase] ([1]; PAD, ethyl acetate 0.15 mL, 20 mg/mL, antisolvent butyl methyl ether 0.75 mL, RT): no solid
Output Main phase [phase] ([1]; PAD, ethyl acetate 0.15 mL, 20 mg/mL, antisolvent butyl methyl ether 1.5 mL, RT): no solid
Output Crystallinity [high/low/SC/oriented] [1, 9]: low
Output Main phase [phase] [1, 9]: no solid
Output Crystallinity [high/low/SC/oriented] [1, 10]: low
Output Main phase [phase] [1, 10]: Form IX
Output Main phase [phase] ([1]; PAD, methyl isobutyl ketone 0.15 mL, 20 mg/mL, antisolvent butyl methyl ether 0.75 mL, RT): no solid
Output Main phase [phase] ([1]; PAD, methyl isobutyl ketone 0.15 mL, 20 mg/mL, antisolvent butyl methyl ether 1.5 mL, RT): no solid
Output Main phase [phase] ([1]; PAD, methyl isobutyl ketone 0.15 mL, 20 mg/mL, antisolvent heptane 0.75 mL, RT): no solid
Output Main phase [phase] ([1]; PAD, methyl isobutyl ketone 0.15 mL, 20 mg/mL, antisolvent heptane 1.5 mL, RT): no solid
Output Main phase [phase] ([1]; PAD, tetrahydrofuran 0.03 mL sat, acetone 0.15 mL, RT): no solid
Output Main phase [phase] ([1]; PAD, tetrahydrofuran 0.03 mL sat, acetone 0.3 mL, RT): no solid
Output Crystallinity [high/low/SC/oriented] [1, 11]: low
Output Main phase [phase] [1, 11]: Form XIX
Output Crystallinity [high/low/SC/oriented] [1, 12]: low
Output Main phase [phase] [1, 12]: no solid
Output Crystallinity [high/low/SC/oriented] [1, 13]: low
Output Main phase [phase] [1, 13]: Form IV
Output Main phase [phase] ([1]; PAD, toluene 0.15 mL, 20 mg/mL, antisolvent butyl methyl ether 0.75 mL, RT): no solid
Output Main phase [phase] ([1]; PAD, toluene 0.15 mL, 20 mg/mL, antisolvent butyl methyl ether 1.5 mL, RT): no solid
Output Main phase [phase] ([1]; PAD, toluene 0.15 mL, 20 mg/mL, antisolvent heptane 0.75 mL, RT): no solid
Output Crystallinity [high/low/SC/oriented] [1, 14]: low
Output Main phase [phase] [1, 14]: Amorphous
Output Main phase [phase] ([1]; PAI-GRAD-EVRT, dimethylformamide 0.15 mL sat, butyl methyl ether 1.5 mL, RT): Form I
Output Main phase [phase] [1, 15]: Form XII
Output Traces [phase] [1, 15]: Form XIII
Output Main phase [phase] ([1]; PAI-GRAD, dimethylformamide 0.15 mL sat, butyl methyl ether 1.5 mL, RT to −20 °C, 1 d): no solid
Output Main phase [phase] ([1]; PAI-GRAD, tetrahydrofuran 0.03 mL sat, acetone 0.3 mL, RT to −20 °C, 3 d): no solid
Output Main phase [phase] ([1]; PAI, dimethylformamide 0.15 mL sat, butyl methyl ether 1.5 mL, RT): no solid
Output Main phase [phase] ([1]; PAI, dimethylformamide 0.15 mL sat, water 0.75 mL, RT): Form I
Output Main phase [phase] ([1]; PAI, tetrahydrofuran 0.03 mL sat, acetone 0.3 mL, RT): no solid
Output Crystallinity [high/low/SC/oriented] [1, 16]: low
Output Main phase [phase] [1, 16]: Form XIX
Output Crystallinity [high/low/SC/oriented] [1, 17]: low
Output Main phase [phase] [1, 17]: Form IV
XRPD Results Phase in traces ([2]; PAD-GRAD): Form XVI
XRPD Results Phase in traces ([2]; PAI-GRAD): Form IX
Compound: CC/C(=C(\c1ccc(O)cc1)c1ccc(OCCNC)cc1)c1ccccc1 [(Z)-endoxifen, (Z)-4-(1-(4-(2-(methylamino)ethoxy)phenyl)-2-phenylbut-1-enyl)phenol]
